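Values below derive from 48-hour exposures of cells grown in 96-well plates, with endpoints linearly interpolated between the two concentrations bracketing the appropriate inhibition level. Abbreviation: GI50, concentration required for 50% inhibition of growth.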 The source made the active and inactive calls. Cut-off read from the data, not from the text of the source: active = GI50 up to about 1.1 µM and inactive = higher.
Tests used:
Test in all cases: growth of human tumour cells (NCI), 48 h
[1] = system: BT-549
[2] = system: NCI-H460
[3] = system: SW-620
[4] = system: M14
[5] = system: IGROV-1
[6] = system: HOP-92
[7] = system: HL-60
[8] = system: Hs-578T
[9] = system: TK-10
[10] = system: EKVX
[11] = system: UO-31
[12] = system: SF-295
[13] = system: RXF 393
[14] = system: MCF7
[15] = system: COLO 205
[16] = system: K562
[17] = system: A549
[18] = system: SF-268
[19] = system: SNB-75
[20] = system: KM12

Fc1ccc(NC(=S)SCc2ccc3c(c2)OCO3)cc1F
GI50 [1]: 21.1 µM (inactive)
GI50 [2]: 28 µM (inactive)
GI50 [3]: 33 µM (inactive)
GI50 [4]: 20.4 µM (inactive)
GI50 [5]: 18.6 µM (inactive)
GI50 [6]: 23.2 µM (inactive)
GI50 [7]: 16.7 µM (inactive)
GI50 [8]: 26.9 µM (inactive)
GI50 [9]: 30.1 µM (inactive)
GI50 [10]: 11.7 µM (inactive)
GI50 [11]: 17 µM (inactive)
GI50 [12]: 18.4 µM (inactive)
GI50 [13]: 15.5 µM (inactive)
GI50 [14]: 18.7 µM (inactive)
GI50 [15]: 18.9 µM (inactive)
GI50 [16]: 19.1 µM (inactive)
GI50 [17]: 15.6 µM (inactive)
GI50 [18]: 21.2 µM (inactive)
GI50 [19]: 20.6 µM (inactive)
GI50 [20]: 25.5 µM (inactive)

CC(C)(CN1CCCCC1)C(=O)/C=C/c1c(Cl)cccc1Cl
GI50 [1]: 1.86 µM (inactive)
GI50 [2]: 1.61 µM (inactive)
GI50 [3]: 0.927 µM (active)
GI50 [4]: 0.863 µM (active)
GI50 [5]: 0.192 µM (active)
GI50 [6]: 1.05 µM (active)
GI50 [7]: 1.61 µM (inactive)
GI50 [8]: 2.17 µM (inactive)
GI50 [9]: 0.627 µM (active)
GI50 [10]: 0.834 µM (active)
GI50 [11]: 0.971 µM (active)
GI50 [12]: 2.64 µM (inactive)
GI50 [13]: 0.701 µM (active)
GI50 [14]: 1.29 µM (inactive)
GI50 [15]: 1.57 µM (inactive)
GI50 [16]: 0.736 µM (active)
GI50 [17]: 1.95 µM (inactive)
GI50 [18]: 1.13 µM (inactive)
GI50 [19]: 0.735 µM (active)
GI50 [20]: 0.867 µM (active)

Source: ChEMBL document CHEMBL1201862, “PubChem BioAssay data set” (2004)
